# Source: US20220251109A1, “OXAAZAQUINAZOLINE-7(8H)-KETONE COMPOUND, PREPARATION METHOD THEREFOR AND PHARMACEUTICAL APPLICATION THEREOF” (GENFLEET THERAPEUTICS (SHANGHAI) INC., priority 2019, published 2022)
# Like-named read-outs stand apart in the source and are kept apart here.
# Assays:
# Type in all cases: cell-based, human
# [1] = tested on: p-ERK in MIA PaCa2 cells (Kras G12C mutation); assay: Cell p-ERK detection experiment (HTRF) in MIA PaCa2 cells; details: compound 2 hours
# Procedure: MIA PaCa2 was a human pancreatic cancer cell line with Kras G12C mutation, cultured in 10% FBS+2.5% Horse serum DMEM medium. The cells in the logarithmic growth phase were taken, digested with enzyme EDTA, collected, counted and 2.5E4 cells were seeded in a 96-well cell culture plate, cultured overnight. DMSO was used to prepare 1000× compound 3.16-fold gradient concentration stock solution, and medium was used to dilute 200-fold to 5× compound stock solution. On the second day after cell seeding, 5× compound stock solution was added to each cell culture well, the final concentration was 1×, and DMSO content was 0.1%. DMSO was used as an experimental control (control). After the compound was added and cultured for two hours, the remaining medium was removed. 50 ul cell lysis buffer was added to each well, mixed and incubated for 30 minutes, then 16 ul of the mixture was transferred to a 96-well plate with a non-transparent white bottom, and 16 ul cell lysis buffer was added to blank wells. After the completion of the transfer, 4 ul p-ERK HTRF antibody mixture was added to each well, incubated for 4 hours and the fluorescence value was read. The compound inhibition rate IR (%)=(RLU control-RLU compound)/(RLU control-RLU blank)×100% was calculated, Prism 8 four-parameter method was used to fit the compound's gradient dilution concentration and the corresponding cell proliferation inhibition rate, and the IC50 value was calculate.
# [2] = tested on: MIA PaCa-2 cells (Kras G12C mutation); assay: Cell proliferation inhibition experiment, 3D model, CellTiter-Glo (MIA PaCa-2); details: MIA PaCa-2, 3D sphere plate, 5 days, read-out: MIA-PaCa2 IC50
# In short: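 3D spheroid model: 200 MIA PaCa-2 cells per well cultured overnight, then treated with a 3.16-fold compound dilution series (0.1% DMSO) for 5 days. Viability read by CellTiter-Glo luminescence. Inhibition rate normalised to DMSO and medium-blank controls; IC50 from four-parameter fit.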
# [3] = tested on: A549 cells (Kras G12S mutation); assay: Cell proliferation inhibition experiment, 3D model, CellTiter-Glo (A549); details: A549, 3D sphere plate, 5 days, 2% FBS
# In short: (§1)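 NCI-H358 (800 cells/well) and A549 (400 cells/well) were grown as overnight 3D spheroids in 2% FBS medium, then exposed 5 days to 3.16-fold compound dilutions (0.1% DMSO). Viability was read by CellTiter-Glo luminescence; IC50 came from a four-parameter fit of inhibition normalised to DMSO and medium blanks.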
# [4] = tested on: NCI-H358 cells (Kras G12C mutation); assay: Cell proliferation inhibition experiment, 3D model, CellTiter-Glo (NCI-H358); details: NCI-H358, 3D sphere plate, 5 days, 2% FBS
# In short: as §1
# [5] = Homo sapiens, MIA PaCa-2, 120 h
IC50 [1] [µM],IC50 [2] [µM],IC50 [3] [µM],IC50 [4] [µM],"IC50 ([1]; Homo sapiens, MIA PaCa-2, 2 h) [µM]","IC50 [2, 5] [µM]","IC50 ([3]; Homo sapiens, A549, 120 h) [µM]","IC50 ([4]; Homo sapiens, NCI-H358, 120 h) [µM]",SMILES
0.064,0.01,> 10,0.006,–,–,–,–,"C=CC(=O)N1CCN2c3nc(=O)n(-c4c(C)ccnc4C(C)C)c4nc(-c5ccc(F)cc5F)c(Cl)c(c34)OC[C@@H]2C1 (single isomer, unassigned) [Compound Z49-1]"
–,–,–,–,0.105,0.022,> 10,0.013,C=CC(=O)N1CCN2c3nc(=O)n(-c4c(C)ccnc4C(C)C)c4nc(-c5ccccc5F)c(F)c(c34)OC[C@@H]2C1 [Compound Z84]
0.014,–,–,0.008,–,0.012,11.3,–,C=CC(=O)N1CCN2c3nc(=O)n(-c4nccnc4C(C)C)c4nc(-c5ccccc5F)c(Cl)c(c34)OC[C@H]2C1 [Compound Z104-1]
–,–,–,–,0.047,0.007,> 30,0.004,C=CC(=O)N1CCN2c3nc(=O)n(-c4c(OC)ncnc4C(C)C)c4nc(-c5c(O)cccc5F)c(F)c(c34)OC[C@H]2C1 [Compound Z111]
–,–,–,–,0.014,0.003,> 10,0.001,C=CC(=O)N1CCN2c3nc(=O)n(-c4c(C)ccnc4C(C)C)c4nc(-c5ccccc5Cl)c(Cl)c(c34)OC[C@@H]2C1 [Compound Z58]
–,–,–,–,0.043,0.011,14.7,0.004,C=CC(=O)N1CCN2c3nc(=O)n(-c4c(OC)ncnc4C(C)C)c4nc(-c5ccccc5F)c(Cl)c(c34)OC[C@H]2C1 [Compound Z110]
–,–,–,–,0.047,0.019,> 10,0.007,C=CC(=O)N1CCN2c3nc(=O)n(-c4c(C)ccnc4C(C)C)c4nc(-c5cc(F)ccc5F)c(Cl)c(c34)OC[C@@H]2C1 [Compound Z60]
0.02,–,> 30,0.005,–,0.011,–,–,C=CC(=O)N1CCN2c3nc(=O)n(-c4nccnc4C(C)C)c4nc(-c5c(O)cccc5F)c(Cl)c(c34)OC[C@H]2C1 [Compound Z105-2]
–,0.022,–,0.012,0.128,–,> 10,–,C=CC(=O)N1CCN2c3nc(=O)n(-c4c(C)ccnc4C(C)C)c4nc(-c5ccc(F)cc5F)c(Cl)c(c34)OC[C@@H]2C1 [Compound Z49]
–,–,–,–,0.045,0.006,> 10,0.004,C=CC(=O)N1CCN2c3nc(=O)n(-c4c(C)ccnc4C(C)C)c4nc(-c5ccccc5Cl)c(F)c(c34)OC[C@H]2C1 [Compound Z79]
–,–,–,–,0.101,0.024,> 10,0.013,C=CC(=O)N1CCN2c3nc(=O)n(-c4c(C)ccnc4C(C)C)c4nc(-c5c(C)ccc6[nH]ncc56)c(Cl)c(c34)OC[C@H]2C1 [Compound Z86]
–,–,–,–,0.009,0.002,12.8,0.001,C=CC(=O)N1CCN2c3nc(=O)n(-c4c(C5CC5)ncnc4C4CC4)c4nc(-c5ccccc5F)c(Cl)c(c34)OC[C@H]2C1 [Compound Z93]
–,–,–,–,0.026,0.026,8.89,0.003,C=CC(=O)N1CCN2c3nc(=O)n(-c4c(C)nc(OC)nc4C(C)C)c4nc(-c5ccccc5F)c(Cl)c(c34)OC[C@H]2C1 [Compound Z116]
–,–,–,–,0.007,0.002,> 10,0.002,C=CC(=O)N1CCN2c3nc(=O)n(-c4c(C5CC5)ncnc4C4CC4)c4nc(-c5c(O)cccc5F)c(Cl)c(c34)OC[C@H]2C1 [Compound Z94]
0.502,0.126,> 30,0.094,–,–,–,–,"C=CC(=O)N1CCN2c3nc(=O)n(-c4c(C)ccnc4C4CC4)c4nc(-c5c(O)cccc5F)c(F)c(c34)OC[C@H]2C1 (single isomer, unassigned) [Compound Z112-2]"
–,–,–,–,0.007,0.001,26.8,0.001,C=CC(=O)N1CCN2c3nc(=O)n(-c4c(C(C)C)ncnc4C(C)C)c4nc(-c5c(O)cccc5F)c(Cl)c(c34)OC[C@H]2C1 [Compound Z97]

IC50 [1] [µM],IC50 [2] [µM],IC50 [3] [µM],IC50 [4] [µM],"IC50 ([1]; Homo sapiens, MIA PaCa-2, 2 h) [µM]","IC50 [2, 5] [µM]","IC50 ([3]; Homo sapiens, A549, 120 h) [µM]","IC50 ([4]; Homo sapiens, NCI-H358, 120 h) [µM]",SMILES
–,–,–,–,0.012,0.003,> 10,0.002,C=CC(=O)N1CCN2c3nc(=O)n(-c4c(C5CC5)ncnc4C4CC4)c4nc(-c5c(O)cccc5F)c(F)c(c34)OC[C@H]2C1 [Compound Z99]
0.02,0.005,> 10,0.002,–,–,–,–,"C=CC(=O)N1CCN2c3nc(=O)n(-c4c(C)ccnc4C(C)C)c4nc(-c5c(O)cccc5F)c(F)c(c34)OC[C@H]2C1 (single isomer, unassigned) [Compound Z73-2]"
0.035,–,> 30,0.007,–,0.019,–,–,C=CC(=O)N1CCN2c3nc(=O)n(-c4nccnc4C(C)C)c4nc(-c5c(O)cccc5F)c(F)c(c34)OC[C@H]2C1 [Compound Z107-2]
–,–,–,–,0.034,0.013,> 30,0.003,"C=CC(=O)N1CCN2c3nc(=O)n(-c4c(OC)ncnc4C(C)C)c4nc(-c5c(O)cccc5F)c(F)c(c34)OC[C@H]2C1 (single isomer, unassigned) [Compound Z111-2]"
–,–,–,0.001,0.013,0.003,> 10,–,"C=CC(=O)N1CCN2c3nc(=O)n(-c4c(C)ccnc4C(C)C)c4nc(-c5c(O)cccc5F)c(Cl)c(c34)OC[C@H]2C1 (single isomer, unassigned) [Compound Z23-1]"
–,–,–,–,0.039,0.007,> 10,0.003,C=CC(=O)N1CCN2c3nc(=O)n(-c4c(C)ccnc4C(C)C)c4nc(-c5ccccc5C(F)(F)F)c(Cl)c(c34)OC[C@@H]2C1 [Compound Z66]
0.022,–,–,0.002,–,0.003,> 10,–,C=CC(=O)N1CCN2c3nc(=O)n(-c4c(C)ccnc4C(C)C)c4nc(-c5c(O)cccc5F)c(F)c(c34)OC[C@H]2C1 [Compound Z73]
–,–,–,–,0.05,0.008,> 10,0.001,C=CC(=O)N1CCN2c3nc(=O)n(-c4c(C)ccnc4C(C)C)c4nc(-c5cccc(Cl)c5F)c(Cl)c(c34)OC[C@@H]2C1 [Compound Z61]
0.007,–,> 10,0.002,–,0.002,–,–,"C=CC(=O)N1CCN2c3nc(=O)n(-c4c(C)ncnc4C(C)C)c4nc(-c5cccc(F)c5F)c(Cl)c(c34)OC[C@H]2C1 (single isomer, unassigned) [Compound Z96-2]"
0.025,0.008,> 10,0.003,–,–,–,–,"C=CC(=O)N1CCN2c3nc(=O)n(-c4c(C)ccnc4C(C)C)c4nc(-c5c(O)cccc5F)c(Cl)c(c34)OC[C@@H]2C1 (single isomer, unassigned) [Compound Z24-2]"
0.005,–,> 10,0.001,–,0.001,–,–,"C=CC(=O)N1CCN2c3nc(=O)n(-c4c(C)ncnc4C(C)C)c4nc(-c5ccccc5F)c(Cl)c(c34)OC[C@H]2C1 (single isomer, unassigned) [Compound Z95-2]"
0.008,–,> 10,0.001,–,0.002,–,–,"C=CC(=O)N1CCN2c3nc(=O)n(-c4c(C)ccnc4C(C)C)c4nc(-c5ccc(F)cc5F)c(Cl)c(c34)OC[C@H]2C1 (single isomer, unassigned) [Compound Z76-2]"
–,–,–,0.005,0.018,0.012,8.48,–,"C=CC(=O)N1CCN2c3nc(=O)n(-c4c(C#N)cnn4C(C)(C)C)c4nc(-c5ccccc5F)c(Cl)c(c34)OC[C@H]2C1 (single isomer, unassigned) [Compound Z109-1]"
0.018,–,> 30,0.003,–,0.015,–,–,"C=CC(=O)N1CCN2c3nc(=O)n(-c4c(C)ccnc4C(C)C)c4nc(-c5cccc(Cl)c5F)c(Cl)c(c34)OC[C@H]2C1 (single isomer, unassigned) [Compound Z91-2]"
0.024,0.004,–,0.003,–,–,> 30,–,"C=CC(=O)N1CCN2c3nc(=O)n(-c4c(C)ccnc4C4CC4)c4nc(-c5c(O)cccc5F)c(F)c(c34)OC[C@H]2C1 (single isomer, unassigned) [Compound Z112-1]"
